Results published in ChEMBL document CHEMBL1201862, “PubChem BioAssay data set” (2004).
Calls of active or inactive are those of the source.

Key:
[1] = biological target: T1, Heat shock factor protein 1 (Mus musculus, UniProt P38532); assay: inhibition of MG132-induced HSE-luciferase signal, confirmation, cell-based, NIH3T3, luminescence, dose retest (AID 2382); type: functional;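 further: NIH3T3 fibroblasts with HSF1-driven luciferase reporter stressed by proteasome inhibitor MG132; luminescence from HSF1-driven luciferase expression after 8 hours of MG132 stress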
T1 sequence (P38532 whole entry): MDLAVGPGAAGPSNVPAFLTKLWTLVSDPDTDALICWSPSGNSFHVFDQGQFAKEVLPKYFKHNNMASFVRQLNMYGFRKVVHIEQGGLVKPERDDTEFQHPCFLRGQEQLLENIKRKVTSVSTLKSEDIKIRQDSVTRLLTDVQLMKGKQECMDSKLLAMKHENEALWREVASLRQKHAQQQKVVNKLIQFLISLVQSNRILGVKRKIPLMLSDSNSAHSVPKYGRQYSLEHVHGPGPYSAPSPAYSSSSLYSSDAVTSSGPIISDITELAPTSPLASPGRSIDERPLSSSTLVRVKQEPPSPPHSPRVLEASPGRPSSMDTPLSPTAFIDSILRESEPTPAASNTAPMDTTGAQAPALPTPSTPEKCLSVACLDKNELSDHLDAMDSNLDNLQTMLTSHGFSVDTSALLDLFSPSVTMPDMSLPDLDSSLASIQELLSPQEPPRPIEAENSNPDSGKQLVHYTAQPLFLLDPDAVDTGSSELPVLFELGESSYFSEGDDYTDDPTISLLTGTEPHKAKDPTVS

BJ [2] = assay: cytotoxicity toward BJ-TERT fibroblasts, dose response, cell-based, RAS-independent, luminescence (AID 1933); type: functional; conditions: Homo sapiens
BJ [3] = assay: cytotoxicity toward BJ-TERT-LT-ST fibroblasts, dose response, cell-based, RAS-independent, luminescence (AID 1935); type: functional; conditions: Homo sapiens;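 further: BJ fibroblasts immortalized with TERT plus LT and ST oncogenes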
[4] = cytotoxicity toward DRD oncogenic fibroblasts, dose response, cell-based, non-viral oncogenic, luminescence (AID 1934); type: functional; conditions: Homo sapiens
[5] = Luminescence Cell-Based Dose Retest to Confirm Inhibitors of Cancer Stem Cells. [Related pubchem assays (depositor defined):AID2717, AID2721]; type: functional; conditions: Homo sapiens
BJ [6] = assay: cells; type: functional, cell-based; conditions: Homo sapiens
Large T antigen = Large T antigen (Simian virus 40, UniProt P03070); type: functional, Betapolyomavirus macacae;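 further: Confirmatory-stage PubChem screen for compounds that inhibit SV40 T antigen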
[7] = biological target: FAD-linked sulfhydryl oxidase ALR (Homo sapiens, UniProt P55789); assay: inhibitors of human ALR sulfhydryl oxidase, dose response, biochemical, H2O2 detection, luminescence, cherry-pick (AID 493248)
[8] = HepG2 cell cytotoxicity, dose response, cytotoxicity control for Shn3 inhibitor project, CellTiter-Glo, cherry-picked (AID 624134); type: functional, cell-based
[9] = control 3'UTR Renilla luciferase suppression, dose response, counter-screen for Shn3 inhibitor project, cell-based, Clone20-Shn3RL, cherry-picked (AID 624133); type: functional
[10] = Shn3 3'UTR reporter inhibitors, dose response, cell-based, Clone20 osteoblasts, firefly luciferase, cherry-picked (AID 624132); type: functional;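 further: firefly luciferase luminescence from reporter carrying the Shn3 3'UTR in osteoblasts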
[11] = HEp-2 cell cytotoxicity, dose response, cytotoxicity control for RSV inhibitor project, HTS (AID 2410); type: functional; conditions: human respiratory syncytial virus
[12] = THP-1 cell cytotoxicity, dose response, cytotoxicity control for non-replicating M. tuberculosis project (AID 489025); type: functional
Protein skinhead-1 = biological target: T2, Protein skinhead-1 (Caenorhabditis elegans, UniProt P34707); type: functional
T2 sequence (P34707 whole entry): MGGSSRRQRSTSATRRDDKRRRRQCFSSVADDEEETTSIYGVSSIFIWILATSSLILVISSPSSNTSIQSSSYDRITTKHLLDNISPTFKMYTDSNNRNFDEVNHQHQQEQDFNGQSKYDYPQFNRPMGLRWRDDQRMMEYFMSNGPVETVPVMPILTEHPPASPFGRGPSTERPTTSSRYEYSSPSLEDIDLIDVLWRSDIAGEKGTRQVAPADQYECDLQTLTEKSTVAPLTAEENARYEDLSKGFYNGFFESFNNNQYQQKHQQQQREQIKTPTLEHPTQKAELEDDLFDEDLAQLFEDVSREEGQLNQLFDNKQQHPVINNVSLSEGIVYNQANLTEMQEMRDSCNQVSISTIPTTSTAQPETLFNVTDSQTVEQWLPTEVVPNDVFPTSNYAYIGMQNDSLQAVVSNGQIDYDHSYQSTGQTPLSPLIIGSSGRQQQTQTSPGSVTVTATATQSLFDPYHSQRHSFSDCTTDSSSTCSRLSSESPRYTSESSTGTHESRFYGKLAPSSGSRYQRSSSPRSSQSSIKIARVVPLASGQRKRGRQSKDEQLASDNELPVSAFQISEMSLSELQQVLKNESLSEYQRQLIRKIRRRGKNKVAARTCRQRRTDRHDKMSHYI

cells = type: functional
Nonstructural protein 1 = Nonstructural protein 1 (Influenza A virus, UniProt Q194T2); type: functional, Influenza A virus (A/California/07/2009(H1N1))
[13] = biological target: T3, Carboxy-terminal domain RNA polymerase II polypeptide A small phosphatase 1 (Homo sapiens, UniProt Q9GZU7); assay: inhibitors of CTDSP1, concentration-response testing, biochemical assay, absorbance-based, actives from ultra-high-throughput screening (AID 540297); type: functional
T3 sequence (Q9GZU7 whole entry): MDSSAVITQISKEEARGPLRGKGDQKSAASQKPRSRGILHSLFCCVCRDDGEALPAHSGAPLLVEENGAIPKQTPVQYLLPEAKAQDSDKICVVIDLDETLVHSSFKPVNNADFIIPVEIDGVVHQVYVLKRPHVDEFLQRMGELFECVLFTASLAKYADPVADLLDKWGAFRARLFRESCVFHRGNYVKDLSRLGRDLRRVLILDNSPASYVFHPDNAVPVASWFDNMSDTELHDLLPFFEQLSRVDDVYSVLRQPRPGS

INS1 = assay: beta cell apoptosis inhibitors, cytokine rescue, dose response, luminescence, retest (AID 449756); type: functional, cell-based; conditions: Rattus norvegicus;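 further: cell death triggered by IL-1 beta plus TNF-alpha plus IFN-gamma mixture; protective hits raise ATP signal compared with cytokine alone wells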

Sequence of Nonstructural protein 1 (Q194T2 whole entry, the tested form may be a part): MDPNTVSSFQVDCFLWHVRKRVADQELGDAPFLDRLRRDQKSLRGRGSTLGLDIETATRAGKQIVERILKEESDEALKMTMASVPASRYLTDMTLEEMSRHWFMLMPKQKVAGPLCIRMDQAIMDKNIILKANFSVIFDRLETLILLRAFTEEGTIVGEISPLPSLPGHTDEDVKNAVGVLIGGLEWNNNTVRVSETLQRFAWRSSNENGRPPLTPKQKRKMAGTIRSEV
Sequence of Large T antigen (P03070 whole entry): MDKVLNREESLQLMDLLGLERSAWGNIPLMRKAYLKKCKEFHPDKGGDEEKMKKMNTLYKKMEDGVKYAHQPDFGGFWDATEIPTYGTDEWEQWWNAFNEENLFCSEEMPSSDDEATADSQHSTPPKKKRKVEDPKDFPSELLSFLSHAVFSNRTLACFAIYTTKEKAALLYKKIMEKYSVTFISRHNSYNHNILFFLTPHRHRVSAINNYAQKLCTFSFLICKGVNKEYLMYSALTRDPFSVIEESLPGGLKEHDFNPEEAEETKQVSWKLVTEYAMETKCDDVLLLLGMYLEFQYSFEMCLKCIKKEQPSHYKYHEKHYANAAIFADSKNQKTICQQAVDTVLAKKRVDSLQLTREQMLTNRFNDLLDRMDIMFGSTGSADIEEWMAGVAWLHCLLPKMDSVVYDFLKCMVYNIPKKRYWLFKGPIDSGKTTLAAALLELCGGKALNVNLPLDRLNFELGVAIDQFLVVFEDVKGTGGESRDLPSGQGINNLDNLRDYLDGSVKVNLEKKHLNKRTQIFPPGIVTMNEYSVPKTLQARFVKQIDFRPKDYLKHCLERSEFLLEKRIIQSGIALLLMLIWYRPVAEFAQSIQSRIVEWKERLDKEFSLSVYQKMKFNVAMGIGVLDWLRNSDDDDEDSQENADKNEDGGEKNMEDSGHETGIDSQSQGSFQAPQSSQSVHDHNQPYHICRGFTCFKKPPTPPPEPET
Sequence of FAD-linked sulfhydryl oxidase ALR (P55789 whole entry): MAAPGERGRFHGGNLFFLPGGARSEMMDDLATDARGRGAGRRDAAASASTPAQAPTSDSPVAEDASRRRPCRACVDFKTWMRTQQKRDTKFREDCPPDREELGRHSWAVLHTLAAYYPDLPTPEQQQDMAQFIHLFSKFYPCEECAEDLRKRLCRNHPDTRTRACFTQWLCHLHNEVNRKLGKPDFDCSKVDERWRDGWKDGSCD

Cc1oc(-c2cc3c(cc2Cl)OCO3)nc1CN1CCCC1c1ccc(F)cc1 (stereo not drawn)
EC50 [1]: > 195 µM (not active)

CCCS(=O)(=O)c1c(S(=O)(=O)CCC)c2c(C)cccn2c1C(=O)N/N=C/c1cc(O)cc(O)c1
EC50 (BJ [2]): 23.5 µM (active) | EC50 (BJ [3]): 18.1 µM (active) | EC50 [4]: 27 µM (active) | AC50 [5]: 2.52 µM (active) | EC50 (BJ [6]): 20.2 µM (active)

Cc1ccc(C(=O)NCC(=O)NCC(=O)OCC(=O)c2ccc(F)cc2)cc1
EC50 [1]: > 195 µM (not active)

CCN1C(=O)CC(N2CCC(Nc3ccc(OC)cc3)CC2)C1=O (stereo not drawn)
IC50 (Large T antigen): 57.7 µM (active) | AC50 [7]: 2.09 µM (active)

COc1cccc(CNc2nc(NCC3CC3)nc3ccsc23)c1
AC50 [8]: 43 µM (active) | AC50 [9]: 11.2 µM (active) | AC50 [10]: 5.86 µM (active)

O=C(Nc1nccs1)c1ccc(-c2ccc(Cl)cc2)o1
CC50 [11]: > 50 µM (active) | CC50 [12]: > 40 µM (active) | IC50 (Protein skinhead-1): > 100 µM (inactive) | IC50 (cells): 25.6 µM (active)

Cc1ccc2[nH]c3nc(NN)nnc3c2c1
IC50 (Nonstructural protein 1): 13.5 µM (active)

Nc1ccc2cccc(O)c2c1
IC50 [13]: 4.61 µM (active)

CCOc1cc(C)c(S(=O)(=O)Nc2ccc3c[nH]nc3c2)cc1C
AC50 [8]: 36 µM (active) | AC50 (INS1): 4.13 µM (active) | AC50 [10]: 4.89 µM (active)

CCOc1ccc2c(c1)-c1c(ssc1=S)C(C)(C)N2C
IC50 (Nonstructural protein 1): 12.8 µM (active)

O=C(Nc1ccc(Nc2ccccc2)cc1)N1CCOCC1
IC50 (Large T antigen): 7.43 µM (active)

Cc1ncc([N+](=O)[O-])n1CC(=O)Nc1ccc(F)cc1
EC50 [1]: 12.3 µM (active)

COc1ccc(NC(=O)NNC(=O)c2ccc(-c3ccccc3)cc2)cc1
IC50 [13]: 4.6 µM (active)

Cc1ccc(NC(=O)COc2ccc(-n3ccnc3)cc2)cc1Cl
CC50 [12]: > 40 µM (active) | IC50 (cells): 25.5 µM (active)

Cc1ccc(S(=O)(=O)NC2=C(N3CCN(Cc4ccccc4)CC3)C(=O)c3ccccc3C2=O)cc1
IC50 (Nonstructural protein 1): 22.4 µM (active)
